Measured values as given in patent US20230286946A1, “DIFLUOROMETHYL-PYRIDIN-2-YL TRIAZOLES” (Boehringer Ingelheim International GmbH, priority 2020, published 2023).

Tests used:
α5ß2 γ2 GABAA Receptor = biological target: T1, α5ß2 γ2 GABAA Receptor (Homo sapiens, UniProt P18507+P31644); experiment: Assay B: in vitro evaluation of modulation of α5ß2γ2 GABAA receptor, two-electrode voltage clamp in oocytes; assay type: cell-based; conditions: for EC50: co-application with 0.5 μM GABA, oocytes, read-out: Assay B: GABAA α 5 β 3 γ 2 EC50
T1 sequence (P31644 32-462): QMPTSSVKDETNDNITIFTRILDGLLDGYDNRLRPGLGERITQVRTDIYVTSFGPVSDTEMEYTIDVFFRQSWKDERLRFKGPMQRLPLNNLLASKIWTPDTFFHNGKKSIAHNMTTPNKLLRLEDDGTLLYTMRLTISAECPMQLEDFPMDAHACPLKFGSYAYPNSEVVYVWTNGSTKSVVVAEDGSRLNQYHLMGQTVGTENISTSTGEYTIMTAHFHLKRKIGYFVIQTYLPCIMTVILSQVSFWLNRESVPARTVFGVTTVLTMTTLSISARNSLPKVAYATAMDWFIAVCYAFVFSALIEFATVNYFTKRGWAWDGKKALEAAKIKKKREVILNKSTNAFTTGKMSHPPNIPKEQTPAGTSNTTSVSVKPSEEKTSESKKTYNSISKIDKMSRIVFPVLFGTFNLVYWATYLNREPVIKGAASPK
T1 sequence (P18507 40-376 limits assumed): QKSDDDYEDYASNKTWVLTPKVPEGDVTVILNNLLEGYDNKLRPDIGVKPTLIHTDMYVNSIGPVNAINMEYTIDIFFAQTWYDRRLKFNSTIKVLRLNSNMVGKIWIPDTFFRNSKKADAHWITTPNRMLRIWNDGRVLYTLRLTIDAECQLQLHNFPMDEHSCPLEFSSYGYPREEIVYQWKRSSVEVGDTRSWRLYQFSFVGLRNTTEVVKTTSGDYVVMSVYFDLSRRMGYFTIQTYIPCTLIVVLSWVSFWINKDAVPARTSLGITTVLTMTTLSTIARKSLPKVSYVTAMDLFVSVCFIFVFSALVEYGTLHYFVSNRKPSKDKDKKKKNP
Experimental: Assay B: In Vitro Evaluation of Modulation of α5ß2 γ2 GABAA Receptor.
Modulatory efficacy of compounds of formular (I) is determined electrophysiological recordings in oocytes using the two-electrode voltage clamp (TEVC) technique. Oocytes are injected with cRNA for human GABAA receptor subunits α5, ß2 and γ2 in a 3:1:3 ratio and modulatory efficacy is evaluated by co-applications with a submaximal EC5-20 GABA concentration (0.5 μM) termed GABA control. As a standard, the compounds are tested in five concentrations (3.16, 0.316, 0.0316, 0.00316 and 0.000316 μM) on each oocyte starting with the lowest concentration. Background subtracted peak current amplitudes are normalized to the respective GABAcontrol current, converted to % change and depicted +/−S.E.M. as a function of increasing compound concentrations. Plotted datapoints are fitted to the empirical Hill equation using non-linear regression. 95% confidence intervals for maximal efficacy (Bottom) and potency (Log EC50) are derived from this fitting routine.

human MDR1 P-gp = experiment: Assessment of efflux in MDCK cells transfected with the human MDR1 gene; assay type: in vitro ADME, canine; conditions: dog, pH 7.4, 37° C.; for Papp A→B: apical-to-basal, read-out: MDCK-PGP A-B; for efflux ratio: read-out: MDCK-PGP Efflux ratio [PEBA/PEAB]
Experimental: Assessment of efflux in Madin-Darby canine kidney (MDCK) cells transfected with the human MDR1 gene to assess brain penetration (Drug Metabolism and Disposition February 2008, 36 (2) 268-275; DOI: https://doi.org/10.1124/dmd.107.017434)
Apparent permeability coefficients (PE) of the compounds across the MDCK-MDR1 cell monolayers are measured (pH 7.4, 37° C.) in apical-to-basal (AB) and basal-to-apical (BA) transport direction. AB permeability (PEAB) represents drug absorption from the blood into the 35 brain and BA permeability (PEBA) drug efflux from the brain back into the blood via both passive permeability as well as active transport mechanisms mediated by efflux and uptake transporters that are expressed on the MDCK-MDR1 cells, predominantly by the overexpressed human MDR1 P-gp. The compounds are assigned to permeability/absorption classes by comparison of the AB permeabilities with the AB permeabilities of reference compounds with known in vitro permeability and oral absorption in the human. Identical or similar permeabilities in both transport directions indicate passive permeation, vectorial permeability points to additional active transport mechanisms. Higher PEBA than PEAB indicates the involvement of active efflux mediated by MDR1 P-gp. Active transport is concentration-dependently saturable.
MDCK-MDR1 cells (1-2×10e5 cells/1 cm2 area) are seeded on filter inserts (Costar transwell polycarbonate or PET filters, 0.4 μm pore size) and cultured (DMEM) for 7 days. Subsequently, the MDR1 expression is boosted by culturing the cells with 5 mM sodium butyrate in full medium for 2 days. Compounds are dissolved in appropriate solvent (like DMSO, 1-20 mM stock solutions). Stock solutions are diluted with HTP-4 buffer (128.13 mM NaCl, 5.36 mM KCl, 1 mM MgSO4, 1.8 mM CaCl2, 4.17 mM NaHCO3, 1.19 mM Na2HPO4×7H2O, 0.41 mM NaH2PO4×H2O, 15 mM HEPES, 20 mM glucose, 0.25% BSA, pH 7.4) to prepare the transport solutions (0.1-300 μM compound, final DMSO <=0.5%). The transport solution (TL) is applied to the apical or basolateral donor side for measuring A-B or B-A permeability (3 filter replicates), respectively. The receiver side contains the same buffer as the donor side. Samples are collected at the start and end of experiment from the donor and at various time intervals for up to 2 hours also from the receiver side for concentration measurement by HPLC-MS/MS or scintillation counting. Sampled receiver volumes are replaced with fresh receiver solution.

Compound	Assay B: GABAA α 5 β 3 γ 2 Emax vs GABA (α5ß2 γ2 GABAA Receptor) [%]	EC50 (α5ß2 γ2 GABAA Receptor) [nM]	Papp A→B (human MDR1 P-gp) [×10⁻⁶ cm/s]	efflux ratio (human MDR1 P-gp)
Cc1nnn(-c2ccc(C(F)F)cn2)c1COc1ccc(-c2ccc(=O)n(C)c2)nn1 [Example 1, 5-[6-({1-[5-(difluoromethyl)pyridin-2-yl]-4-methyl-1H-1,2,3-triazol-5-yl}methoxy)pyridazin-3-yl]-1-methyl-1,2-dihydropyridin-2-one]	-24.9	41.3	31	1.8
Cc1nnn(-c2ccc(C(F)F)cn2)c1COc1ccc(-c2cnc(N)nc2)nn1 [Example 2]	-25.3	92.5	34	1.9
Cc1cc(-c2ccc(OCc3c(C)nnn3-c3ccc(C(F)F)cn3)nn2)cnn1 [Example 3]	-24.7	6.6	41	1.4
Cc1nnn(-c2ccc(C(F)F)cn2)c1COc1ccc(-c2cn[nH]c2)nn1 [Example 4]	-22.3	93	57	0.8
Cc1nnn(-c2ccc(C(F)F)cn2)c1COc1ccc(-c2cc[nH]n2)nn1 [Example 5]	-32.3	11.6		
Cc1nnn(-c2ccc(C(F)F)cn2)c1COc1ccc(-c2cccc(C(N)=O)c2)nn1 [Example 6]	-8.8	13.9		
Cc1nnn(-c2ccc(C(F)F)cn2)c1COc1ccc(-c2cnn(CC#N)c2)nn1 [Example 7]	-6.3	12.7		
Cc1nnn(-c2ccc(C(F)F)cn2)c1COc1ccc(-c2ccc(C#N)nc2)nn1 [Example 8]	2.7			
Cc1nnn(-c2ccc(C(F)F)cn2)c1COc1ccc(-c2ccc(C#N)s2)nn1 [Example 12]	-12.3	147	51	0.3
CNc1cccc(-c2ccc(OCc3c(C)nnn3-c3ccc(C(F)F)cn3)nn2)n1 [Example 14]	-21	89	55	0.7
Cc1n[nH]c(C)c1-c1ccc(OCc2c(C)nnn2-c2ccc(C(F)F)cn2)nn1 [Example 15]	-24.7	34.7	17	3.5
Cc1nnn(-c2ccc(C(F)F)cn2)c1COc1ccc(-c2ccc(S(C)(=O)=O)nc2)nn1 [Example 16]	-20.3	85.9	59	0.6
Cc1nnn(-c2ccc(C(F)F)cn2)c1COc1ccc(-c2ccnnc2)nn1 [Example 17]	-33.2	1	51	1
Cc1ncc(-c2ccc(OCc3c(C)nnn3-c3ccc(C(F)F)cn3)nn2)o1 [Example 18]	-28.7	23.3	71	0.6
Cc1nnn(-c2ccc(C(F)F)cn2)c1COc1ccc(-c2ccc(N)nc2)nn1 [Example 19]	-28.5	64	41	1.2
Cc1nnn(-c2ccc(C(F)F)cn2)c1COc1ccc(-c2c[nH]c(=O)c(F)c2)nn1 [Example 20]	-32.3	11.6	15	2
CCn1cc(-c2ccc(OCc3c(-c4ccc(C(F)F)cn4)nnn3C)nn2)cn1 [Example 22]	-14.9	26.9	40	1.1
Cn1nnc(-c2ccc(C(F)F)cn2)c1COc1ccc(-c2ccc(S(C)(=O)=O)nc2)nn1 [Example 23]	-8	3.1		
Cn1nnc(-c2ccc(C(F)F)cn2)c1COc1ccc(-c2ccc(N)nc2)nn1 [Example 25]	-11	8.2		
Cc1c(-c2ccc(OCc3c(-c4ccc(C(F)F)cn4)nnn3C)nn2)cc(C#N)n1C [Example 29]	-29	11.5		
Cc1nn(C)cc1-c1ccc(OCc2c(-c3ccc(C(F)F)cn3)nnn2C)nn1 [Example 30]	-4.7	4.6		
COc1ncc(-c2ccc(OCc3c(-c4ccc(C(F)F)cn4)nnn3C)nn2)cn1 [Example 31]	-12.3	20		
Cn1nnc(-c2ccc(C(F)F)cn2)c1COc1ccc(-c2cnn(C3CCC3)c2)nn1 [Example 32]	-3.3			
Cc1c(-c2ccc(OCc3c(-c4ccc(C(F)F)cn4)nnn3C)nn2)cnn1C [Example 33]	-21	29.5		
Cn1nnc(-c2ccc(C(F)F)cn2)c1COc1ccc(-c2cnc3nonc3c2)nn1 [Example 35]	-9.6	63		
Cn1nnc(-c2ccc(C(F)F)cn2)c1COc1ccc(-n2cc(C#N)cn2)nn1 [Example 49]	5.7			
Cn1nnc(-c2ccc(C(F)F)cn2)c1COc1ccc(-n2cccn2)nn1 [Example 50]	-13.7	12		
Cn1nnc(-c2ccc(C(F)F)cn2)c1COc1ccc(-n2ccc(C#N)n2)nn1 [Example 53]		3.9		
